Measured values: patent publication US20240271133A1, “KRAB-Containing Zinc Finger Protein And Cancer” (ECOLE POLYTECHNIQUE FEDERALE DE LAUSANNE (EPFL), priority 2021, published 2024)

Tested on: U2932 KD cells
Experimental: pLKO.puro shRNA vectors were used for ZNF586, ZNF587 and ZNF417 knock downs. […] The short hairpin RNAs (shRNAs) targeting the sequence ZNF586 (TRCN0000015373 and TRCN0000015376) were obtained from Sigma-Aldrich. Lentiviral vectors production protocols are detailed at http://tronolab.epfl.ch. The cell proliferation after LV transduction was determined using the 3-[4,5-dimethylthiazol-2-yl]-2,5-diphenyltetrazolium bromide (MTT) assay. The cells were transduced at a multiplicity of infection (MOI) of 20 in every experiment.

SMILES	cytotoxic interaction of drug with ZNF587/417 depletion
Nc1ncn([C@H]2C[C@H](O)[C@@H](CO)O2)c(=O)n1 [decitabine]	cytotoxic synergism
C=CC(=O)N1CCC[C@@H](n2nc(-c3ccc(Oc4ccccc4)cc3)c3c(N)ncnc32)C1 [ibrutinib]	cytotoxic synergism
